Tests used:
Assay type in all cases: biochemical
JAK1 = biological target: T1, JAK1 (Homo sapiens, UniProt P23458); assay: JAK tyrosine kinase inhibitory activity in the presence of 1 mM ATP (ELISA), JAK1
T1 construct: purchased Carna Biosciences, Inc
Procedure: (§1) 1. Preparation of Test Compound
(§2) The test compound was dissolved in dimethyl sulfoxide (DMSO) to 10 mM and further diluted with DMSO to the concentrations of 1000, 100, 10, 1, 0.1 and 0.01 μM, respectively. For JAK1, these solutions of the test compound at the six concentrations 10 mM, 1000 μM, 100 μM, 10 μM, 1 μM and 0.1 μM were used. For JAK2 and JAK3, these solutions of the test compound at the six concentrations 1000 μM, 100 μM, 10 μM, 1 μM, 0.1 μM and 0.01 μM were used. The test compound solutions were diluted further to 20-fold with an assay buffer to obtain a sample solution. 15 mM Tris-HCl (pH7.5), 0.01 (v/v) % Tween-20 and 1 mM dithiothreitol were used as an assay buffer. DMSO was diluted to 20-fold with the assay buffer and was used as a negative control.
(§3) 2. JAK Tyrosine Kinase Inhibitory Activity in the Presence of 1 mM Atp
(§4) The activity was determined by ELISA method. Each of the sample solutions was added to a streptavidine coated 96-well plate (DELFIA Strip Plate 8×12 well, PerkinElmer) at 10 μL/well (n=2). […] Finally, JAK tyrosine kinase (Carna Biosciences, Inc.), which was previously diluted with the assay buffer to 7.5 nM for JAK1 and 0.75 nM for JAK2 and JAK3, was added to the plate at 20 μL/well, and the plate was incubated at 30° C. for 1 h. The plate was washed four times with buffer (50 mM Tris-HCl (pH 7.5), 150 mM NaCl, 0.02 (v/v) % Tween-20). A blocking buffer (0.1% Bovine Serum Albumin, 50 mM Tris-HCl (pH 7.5), 150 mM NaCl, 0.02 (v/v) % Tween-20) was added to the plate at 150 μL/well and the plate was blocked at 30° C. for 1 h. The blocking buffer was removed, and a horse radish peroxidase-labeled anti-phosphorylated tyrosine antibody (BD Biosciences, Inc.) (diluted to 10000-fold with the blocking buffer) was added to the plate at 100 μL/well, and the plate was incubated at 30° C. for 30 min. The plate was washed with the washing buffer four times, and 3,3′,5,5′-tetramethylbenizidine solution (Nacalai Tesque) was added to the plate at 100 μL/well to develop the color for 10 minutes. To the plate was added 0.1 M sulfuric acid at 100 μL/well to stop the reaction. The absorbance at 450 nm was measured using a microplate reader (BIO-RAD).
(§5) 3. Analysis of the Results

JAK2 = biological target: T2, JAK2 (Homo sapiens, UniProt O60674); assay: JAK tyrosine kinase inhibitory activity in the presence of 1 mM ATP (ELISA), JAK2
T2 construct: purchased Carna Biosciences, Inc
T2 sequence (O60674 whole entry): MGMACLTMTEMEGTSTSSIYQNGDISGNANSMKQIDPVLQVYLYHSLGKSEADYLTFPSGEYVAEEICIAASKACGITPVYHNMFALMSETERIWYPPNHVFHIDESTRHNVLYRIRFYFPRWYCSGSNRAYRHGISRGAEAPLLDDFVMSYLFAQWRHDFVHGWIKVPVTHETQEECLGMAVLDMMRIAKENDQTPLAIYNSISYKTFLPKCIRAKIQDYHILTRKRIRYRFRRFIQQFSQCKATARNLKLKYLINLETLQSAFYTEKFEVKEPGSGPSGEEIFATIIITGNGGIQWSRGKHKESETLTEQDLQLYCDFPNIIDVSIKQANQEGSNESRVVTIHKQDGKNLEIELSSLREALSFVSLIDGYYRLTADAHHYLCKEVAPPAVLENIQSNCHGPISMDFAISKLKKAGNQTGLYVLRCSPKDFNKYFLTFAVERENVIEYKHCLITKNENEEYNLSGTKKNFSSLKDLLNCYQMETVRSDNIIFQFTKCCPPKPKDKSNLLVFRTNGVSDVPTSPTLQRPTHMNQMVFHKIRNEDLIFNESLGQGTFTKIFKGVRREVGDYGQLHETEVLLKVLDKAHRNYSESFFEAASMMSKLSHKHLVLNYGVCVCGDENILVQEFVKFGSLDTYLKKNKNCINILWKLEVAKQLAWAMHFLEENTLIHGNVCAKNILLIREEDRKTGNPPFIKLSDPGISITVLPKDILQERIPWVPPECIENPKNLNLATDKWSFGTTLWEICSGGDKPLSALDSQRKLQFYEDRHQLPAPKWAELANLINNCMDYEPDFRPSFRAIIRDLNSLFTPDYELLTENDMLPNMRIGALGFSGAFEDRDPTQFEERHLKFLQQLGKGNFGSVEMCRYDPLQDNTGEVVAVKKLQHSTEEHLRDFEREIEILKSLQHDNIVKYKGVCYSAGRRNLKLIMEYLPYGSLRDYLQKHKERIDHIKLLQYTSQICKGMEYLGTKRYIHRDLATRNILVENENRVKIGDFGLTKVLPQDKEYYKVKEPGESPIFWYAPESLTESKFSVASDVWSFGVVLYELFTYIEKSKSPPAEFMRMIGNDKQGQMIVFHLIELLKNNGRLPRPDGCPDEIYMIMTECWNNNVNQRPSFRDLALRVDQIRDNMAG
Procedure: as §1, §2, §3, §4, §5

JAK3 = biological target: T3, JAK3 (Homo sapiens, UniProt P52333); assay: JAK tyrosine kinase inhibitory activity in the presence of 1 mM ATP (ELISA), JAK3
T3 construct: purchased Carna Biosciences, Inc
T3 sequence (P52333 1-1124): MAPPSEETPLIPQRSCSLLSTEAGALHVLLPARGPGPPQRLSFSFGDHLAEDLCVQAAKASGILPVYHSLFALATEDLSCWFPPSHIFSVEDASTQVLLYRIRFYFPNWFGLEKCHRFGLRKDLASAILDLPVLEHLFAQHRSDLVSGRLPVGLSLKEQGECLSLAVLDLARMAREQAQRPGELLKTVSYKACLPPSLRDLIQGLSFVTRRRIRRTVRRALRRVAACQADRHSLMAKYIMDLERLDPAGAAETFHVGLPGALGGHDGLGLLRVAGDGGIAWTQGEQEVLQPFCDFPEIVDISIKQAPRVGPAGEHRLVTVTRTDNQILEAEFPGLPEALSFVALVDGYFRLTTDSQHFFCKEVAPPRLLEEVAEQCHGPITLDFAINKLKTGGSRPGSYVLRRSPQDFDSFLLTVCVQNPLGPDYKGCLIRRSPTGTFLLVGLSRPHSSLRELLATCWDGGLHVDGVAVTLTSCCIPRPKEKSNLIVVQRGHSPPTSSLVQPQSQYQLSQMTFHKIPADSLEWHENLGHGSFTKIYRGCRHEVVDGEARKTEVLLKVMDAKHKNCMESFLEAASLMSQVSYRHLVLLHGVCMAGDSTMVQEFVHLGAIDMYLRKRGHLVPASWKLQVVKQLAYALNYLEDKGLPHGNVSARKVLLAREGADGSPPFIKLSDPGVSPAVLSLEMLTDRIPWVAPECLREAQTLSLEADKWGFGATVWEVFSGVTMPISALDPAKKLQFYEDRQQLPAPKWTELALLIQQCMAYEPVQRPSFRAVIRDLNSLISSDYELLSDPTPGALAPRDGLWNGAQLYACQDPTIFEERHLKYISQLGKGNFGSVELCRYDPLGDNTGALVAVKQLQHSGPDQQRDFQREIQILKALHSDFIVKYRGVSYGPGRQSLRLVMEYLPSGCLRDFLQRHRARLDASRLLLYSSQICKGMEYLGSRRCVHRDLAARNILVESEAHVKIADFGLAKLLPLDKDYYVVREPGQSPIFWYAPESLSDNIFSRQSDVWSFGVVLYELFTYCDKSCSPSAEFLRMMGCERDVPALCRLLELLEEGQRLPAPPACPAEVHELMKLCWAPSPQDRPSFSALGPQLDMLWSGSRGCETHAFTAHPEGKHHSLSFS
Procedure: as §1, §2, §3, §4, §5

T1 sequence (P23458 whole entry): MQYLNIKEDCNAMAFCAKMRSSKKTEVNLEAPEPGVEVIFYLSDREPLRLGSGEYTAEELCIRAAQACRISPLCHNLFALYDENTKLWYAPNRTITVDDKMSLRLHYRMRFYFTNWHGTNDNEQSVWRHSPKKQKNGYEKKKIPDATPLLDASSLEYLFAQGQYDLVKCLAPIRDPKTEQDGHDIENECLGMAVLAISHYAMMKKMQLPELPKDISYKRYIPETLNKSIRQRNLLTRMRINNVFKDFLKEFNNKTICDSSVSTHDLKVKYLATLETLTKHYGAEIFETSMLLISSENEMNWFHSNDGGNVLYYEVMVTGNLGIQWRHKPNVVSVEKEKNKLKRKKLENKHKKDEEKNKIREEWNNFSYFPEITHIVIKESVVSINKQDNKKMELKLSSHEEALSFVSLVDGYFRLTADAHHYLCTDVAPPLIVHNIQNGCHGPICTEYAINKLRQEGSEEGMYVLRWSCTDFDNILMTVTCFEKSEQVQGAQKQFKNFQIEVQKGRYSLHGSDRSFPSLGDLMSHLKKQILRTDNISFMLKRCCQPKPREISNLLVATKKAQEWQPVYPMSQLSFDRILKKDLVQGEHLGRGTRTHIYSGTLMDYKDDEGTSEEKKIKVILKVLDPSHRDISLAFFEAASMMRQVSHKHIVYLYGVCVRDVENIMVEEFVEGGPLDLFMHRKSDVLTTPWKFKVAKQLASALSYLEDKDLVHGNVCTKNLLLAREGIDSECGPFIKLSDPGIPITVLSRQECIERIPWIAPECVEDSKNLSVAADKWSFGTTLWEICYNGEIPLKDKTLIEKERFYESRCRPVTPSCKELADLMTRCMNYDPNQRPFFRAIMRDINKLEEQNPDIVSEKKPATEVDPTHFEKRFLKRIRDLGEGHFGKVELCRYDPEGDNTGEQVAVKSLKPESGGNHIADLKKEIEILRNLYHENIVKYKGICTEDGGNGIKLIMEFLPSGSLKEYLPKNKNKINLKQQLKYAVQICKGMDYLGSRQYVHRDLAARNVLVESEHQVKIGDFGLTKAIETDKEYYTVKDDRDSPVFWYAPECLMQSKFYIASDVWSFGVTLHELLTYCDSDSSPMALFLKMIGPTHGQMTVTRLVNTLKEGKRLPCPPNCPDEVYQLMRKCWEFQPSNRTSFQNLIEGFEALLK

Compound	IC50 (JAK1) [nM]	IC50 (JAK2) [nM]	IC50 (JAK3) [nM]
COc1ccc([C@@H](C)Nc2cc(C(=O)N3CCC(NC(=O)C4CC4)CC3)nc(-c3cnn4ccsc34)n2)cc1 [Example 52, N-(1-{[6-{[(1R)-1-(4-Methoxyphenyl)ethyl]amino}-2-(pyrazolo[5,1-b][1,3]thiazol-7-yl)pyrimidin-4-yl]carbonyl}piperidin-4-yl)cyclopropanecarboxamide]	180	9300	> 10000
COC(=O)NC1CCN(C(=O)c2cc(N[C@@H]3CCN(C(=O)OC(C)(C)C)C3)nc(-c3cnn4ccsc34)n2)CC1 [Example 148, tert-Butyl (3R)-3-{[6-({4-[(methoxycarbonyl)amino]piperidin-1-yl}carbonyl)-2-(pyrazolo[5,1-b][1,3]thiazol-7-yl)pyrimidin-4-yl]amino}pyrrolidine-1-carboxylate]	1600	> 10000	> 10000
COC(=O)NC1CCN(C(=O)c2cc(OC(C)C(C)(C)C)nc(-c3cnn4ccsc34)n2)CC1 (stereo not drawn) [Example 64, Methyl [1-({6-[(3,3-dimethylbutan-2-yl)oxy]-2-(pyrazolo[5,1-b][1,3]thiazol-7-yl)pyrimidin-4-yl}carbonyl)piperidin-4-yl]carbamate]	260	3100	> 10000
CC(C)C(=O)NC1CCN(C(=O)c2cc(NC(C)(C)C)nc(-c3cnn4ccsc34)n2)CC1 [Example 69, N-(1-{[6-(tert-Butylamino)-2-(pyrazolo[5,1-b][1,3]thiazol-7-yl)pyrimidin-4-yl]carbonyl}piperidin-4-yl)-2-methylpropanamide]	810	3500	5700
CCCOC(=O)NC1CCN(C(=O)c2cc(NC(C)(C)C)nc(-c3cnn4ccsc34)n2)CC1 [Example 82, Propyl (1-{[6-(tert-butylamino)-2-(pyrazolo[5,1-b][1,3]thiazol-7-yl)pyrimidin-4-yl]carbonyl}piperidin-4-yl)carbamate]	58	9700	5800
C[C@@H](Nc1cc(C(=O)N2CCC(NC(=O)OCC(F)(F)F)CC2)nc(-c2cnn3ccsc23)n1)C(C)(C)C [Example 104, 2,2,2-Trifluoroethyl (1-{[6-{[(2R)-3,3-dimethylbutan-2-yl]amino}-2-(pyrazolo[5,1-b][1,3]thiazol-7-yl)pyrimidin-4-yl]carbonyl}piperidin-4-yl)carbamate]	200	3000	3400
C[C@H](Nc1cc(C(=O)N2CCC(NC(=O)c3ccccc3)CC2)nc(-c2cnn3ccsc23)n1)C1CC1 [Example 30, N-(1-{[6-{[(1S)-1-Cyclopropylethyl]amino}-2-(pyrazolo[5,1-b][1,3]thiazol-7-yl)pyrimidin-4-yl]carbonyl}piperidin-4-yl)benzamide]	110	1400	> 10000
COC(=O)NC1CCN(C(=O)c2cc(NC(C)(C)C)nc(-c3cnn4ccsc34)n2)CC1 [Example 59, Methyl (1-{[6-(tert-butylamino)-2-(pyrazolo[5,1-b][1,3]thiazol-7-yl)pyrimidin-4-yl]carbonyl}piperidin-4-yl)carbamate]	140	3900	5600
CCC(=O)NC1CCN(C(=O)c2cc(N[C@@H](C)CC)nc(-c3cnn4ccsc34)n2)CC1 [Example 131, N-[1-({6-[(2S)-Butan-2-ylamino]-2-(pyrazolo[5,1-b][1,3]thiazol-7-yl)pyrimidin-4-yl}carbonyl)piperidin-4-yl]propanamide]	310	2200	4700
CC[C@H](C)Nc1nc(-c2cnn3ccsc23)nc(C(=O)N2CCC(NC(=O)OC)CC2)c1OC [Example 153, Methyl [1-({6-[(2S)-butan-2-ylamino]-5-methoxy-2-(pyrazolo[5,1-b][1,3]thiazol-7-yl)pyrimidin 4 yl}carbonyl)piperidin-4-yl]carbamate]	210	7200	9000
COC(=O)NC1CCN(C(=O)c2cc(NCC3CCN(S(C)(=O)=O)CC3)nc(-c3cnn4ccsc34)n2)CC1 [Example 175, Methyl 1-[6-([1-(methanesulfonyl)piperidin-4-yl]methylamino)-2-(pyrazolo[5,1-b][1,3]thiazol-7-yl)pyrimidine-4-carbonyl]piperidin 4-ylcarbamate]	96	> 10000	> 10000
CN(C)C(=O)NC1CCN(C(=O)c2cc(NCC(C)(C)C)nc(-c3cnn4ccsc34)n2)CC1 [Example 137, 3-[1-({6-[(2,2-Dimethylpropyl)amino]-2-(pyrazolo[5,1-b][1,3]thiazol-7-yl)pyrimidin-4-yl}carbonyl)piperidin-4-yl]-1,1-dimethylurea]	640	1400	4200
CCCOC(=O)NC1CCN(C(=O)c2cc(N[C@H](C)C(C)(C)C)nc(-c3cnn4ccsc34)n2)CC1 [Example 85, Propyl (1-{[6-{[(2R)-3,3-dimethylbutan-2-yl]amino}-2-(pyrazolo[5,1-b][1,3]thiazol-7-yl)pyrimidin-4-yl]carbonyl}piperidin-4-yl)carbamate]	330	2200	2300
C[C@@H](Nc1cc(C(=O)N2CCC(NC(=O)c3ccc(F)cc3)CC2)nc(-c2cnn3ccsc23)n1)C(C)(C)C [Example 197, N-1-[6-[(2R)-3,3-dimethylbutan-2-yl]amino-2-(pyrazolo[5,1-b][1,3]thiazol-7-yl)pyrimidine-4-carbonyl]piperidin-4-yl-4-fluorobenzamide]	120	8200	3800
CC1(Nc2cc(C(=O)N3CCC(NC(=O)C4CC4)CC3)nc(-c3cnn4ccsc34)n2)CC1 [Example 37, N-[1-({6-[(1-Methylcyclopropyl)amino] 2 (pyrazolo[5,1-b][1,3]thiazol-7-yl)pyrimidin-4-yl}carbonyl)piperidin-4-yl]cyclopropanecarboxamide]	240	1600	> 10000
CCC(CC)CNc1cc(C(=O)N2CCC(NC(=O)C3CC3)CC2)nc(-c2cnn3ccsc23)n1 [Example 110, N-[1-({6-[(2-Ethylbutyl)amino]-2-(pyrazolo[5,1-b][1,3]thiazol-7-yl)pyrimidin-4-yl}carbonyl)piperidin-4-yl]cyclopropanecarboxamide]	78	880	> 10000
CC(C)(C)Nc1cc(C(=O)N2CCC(Nc3nccs3)CC2)nc(-c2cnn3ccsc23)n1 [Example 75, [6-(tert-Butylamino)-2-(pyrazolo[5,1-b][1,3]thiazol-7-yl)pyrimidin-4-yl][4-(1,3-thiazol-2-ylamino)piperidin-1-yl]methanone]	150	930	4800
